Results: patent US5118811A, “Amino acid derivatives possessing prolyl endopeptidase-inhibitory activities” (Japan Tobacco Inc., priority 1989, dated 1992)

What was measured:
trypsin = target: T1, trypsin (Bos taurus, UniProt P00760); test: Trypsin-Inhibitory Activity; assay type: biochemical, bovine; settings: 1 × 10^-6 M; read-out: Inhibition rate, trypsin
T1 construct: purchased Sigma; host or cells: bovine pancreas
T1 sequence (P00760 24-246): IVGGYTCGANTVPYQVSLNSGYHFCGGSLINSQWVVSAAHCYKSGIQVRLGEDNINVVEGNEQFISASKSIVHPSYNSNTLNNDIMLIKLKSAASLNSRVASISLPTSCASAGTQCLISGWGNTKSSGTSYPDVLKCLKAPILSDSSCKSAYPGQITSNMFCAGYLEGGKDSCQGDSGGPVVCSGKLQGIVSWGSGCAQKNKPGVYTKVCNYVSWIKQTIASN
Procedure: In the present invention, a 50 mM Tris-HCl buffer (pH 8.0) was employed as a buffer for measurement.
To a mixture of the above-mentioned buffer (850 μl), a solution of the compounds of the present invention in the same buffer (50 μl) and a 0.02 μM solution of trypsin (derived from bovine pancreas, Sigma) in the same buffer (50 μl) was added a 200 μM solution of 7-(prolyl-phenylaranyl-arginyl)-4-methylcoumarinamide (Peptide Institute, Inc.) in the same buffer (50 μl), and the mixture was incubated at 30° C. for 1 hour. The reaction mixture was immersed in ice (0° C.) to terminate the reaction, and the fluorescence (b1) was determined 1 hour later (excitation at 370 nm and emission at 440 nm). Concurrently, there were conducted the experiment wherein, in the system above, the trypsin solution was substituted for a buffer alone, and the experiment wherein the solution of the compounds of the present invention was also substituted for a buffer above. Each fluorescence (b2 and b3) was also determined respectively.
(§1) Using the fluorescence x1, x2 and x3 measured in the above-mentioned manner, the inhibitory rate against various proteases was calculated by the following formula where x stands for b, c, d, e or f: [formula]

chymotrypsin = target: T2, chymotrypsin (Bos taurus, UniProt P00766); test: Chymotrypsin-Inhibitory Activity; assay type: biochemical, bovine; settings: 1 × 10^-6 M; read-out: Inhibition rate, chymotrypsin
T2 construct: purchased Sigma; host or cells: bovine pancreas
Procedure: (§2) Similarly, by following the procedure mentioned above, but employing a 50 mM Tris-HCl buffer (pH 8.0) as a buffer for measurement, a 0.2 μM solution of chymotrypsin (derived from bovine pancrease, Sigma) in the same buffer as an enzyme solution and a 200 μM solution of 7-(N-succinyl-leucyl-leucyl-valyl-tyrosyl)-4-methylcoumarinamide (Peptide Institute, Inc.) in the same buffer as a substrate solution. Each fluorescence (c1, c2 and c3) was also determined, respectively.
as §1

elastase = target: T3, elastase (Sus scrofa, UniProt P00772); test: Elastase-Inhibitory Activity; assay type: biochemical, swine; settings: 1 × 10^-6 M; read-out: Inhibition rate, elastase
T3 construct: purchased Sigma; host or cells: swine pancreas
T3 sequence (P00772 27-266): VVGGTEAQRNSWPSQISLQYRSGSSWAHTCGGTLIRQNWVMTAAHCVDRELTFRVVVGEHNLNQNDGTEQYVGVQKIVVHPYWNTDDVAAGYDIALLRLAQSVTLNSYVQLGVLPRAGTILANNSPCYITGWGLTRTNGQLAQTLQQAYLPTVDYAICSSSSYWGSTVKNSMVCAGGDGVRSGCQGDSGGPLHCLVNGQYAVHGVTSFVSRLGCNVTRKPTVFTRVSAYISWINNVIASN
Procedure: Similarly, by following the procedure mentioned above, but employing a 1 mM Tris-HCl buffer (pH 8.5) as a buffer for measurement, a 0.2 μM solution of elastase (derived from swine pancreas, Sigma) in the same buffer as an enzyme solution and a 200 μM solution of 7-(N-succinyl-aranyl-prolyl-aranyl)-4-methylcoumarinamide (Peptide Institute, Inc.) in the same buffer as a substrate solution. Each fluorescence (e1, e2 and e3) was also determined, respectively.
as §1

prolyl endopeptidase = target: T4, prolyl endopeptidase (Rattus norvegicus, UniProt O70196); test: Prolyl Endopeptidase-Inhibitory Activity; assay type: biochemical; settings: for inhibition at 1 µM: 1 × 10^-6 M, read-out: Inhibition rate, prolyl endopeptidase; for IC50: prolyl endopeptidase extracted from rat brain, pH 7.0, 30° C., preincubated 30 minutes, 1 hour
T4 construct: prolyl endopeptidase extracted from rat brain; from tissue; host or cells: rat brain
T4 sequence (O70196 whole entry): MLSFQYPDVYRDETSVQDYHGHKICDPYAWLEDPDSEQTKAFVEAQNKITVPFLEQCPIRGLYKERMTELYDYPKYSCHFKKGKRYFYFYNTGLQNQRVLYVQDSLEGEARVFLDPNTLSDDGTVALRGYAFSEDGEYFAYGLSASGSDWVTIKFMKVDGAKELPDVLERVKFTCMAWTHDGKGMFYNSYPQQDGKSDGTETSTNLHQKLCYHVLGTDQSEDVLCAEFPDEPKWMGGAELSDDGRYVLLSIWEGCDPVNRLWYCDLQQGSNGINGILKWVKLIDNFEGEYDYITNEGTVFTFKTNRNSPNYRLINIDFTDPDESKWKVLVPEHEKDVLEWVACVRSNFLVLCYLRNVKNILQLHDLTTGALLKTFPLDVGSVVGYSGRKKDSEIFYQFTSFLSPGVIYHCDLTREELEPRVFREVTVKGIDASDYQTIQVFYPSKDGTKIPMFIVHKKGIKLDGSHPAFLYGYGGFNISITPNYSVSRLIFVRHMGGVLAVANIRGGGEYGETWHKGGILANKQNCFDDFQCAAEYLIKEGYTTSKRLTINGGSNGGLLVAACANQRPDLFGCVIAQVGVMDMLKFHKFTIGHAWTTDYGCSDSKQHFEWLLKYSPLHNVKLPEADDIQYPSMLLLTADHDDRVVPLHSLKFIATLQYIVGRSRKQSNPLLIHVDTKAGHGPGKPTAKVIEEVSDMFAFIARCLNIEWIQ
Procedure: A mixture of a 0.1M potassium sodium phosphate buffer (pH 7.0) (2675 μl), a solution of the compounds of the present invention in a 0.1M potassium sodium phosphate buffer (pH 7.0) (100 μl) and a solution of prolyl endopeptidase extracted from rat brain in a 25 mM sodium phosphate buffer (100 μl) [123 unit/1, pH 6.8, containing 1 mM dithiothreitol and 0.5 mM EDTA, prepared by the method described in J. Neurochem., 35, 527 (1980)] was preincubated at 30° C. for 30 minutes. Thereto was added a 0.2 mM solution of 7-(N-succinyl-glycyl-prolyl)-4-methylcoumarinamide (Peptide Institute, INC.) in a 0.1M potassium sodium phosphate buffer (pH 7.0) (125 μl), and the mixture was incubated at 30° C. for 1 hour. The reaction mixture was immersed in ice (0° C.) to terminate the reaction, and the fluorescence (a1) was determined ten minutes later (excitation at 370 nm and emission at 440 nm). Concurrently, there were conducted the experiment wherein, in the above system, the prolyl endopeptidase solution was substituted for a 25 mM sodium phosphate buffer (pH 6.8, containing 1 mM dithiothreitol and 0.5 mM EDTA) and the experiment wherein the solution of the compounds of the present invention was also substituted for a 0.1M potassium sodium phosphate buffer (pH 7.0). Each fluorescence (a2 and a3) was also determined respectively [See Tanpakushitsu Kakusan Koso, 29, 127 (1984)]. The prolyl endopeptidase-inhibition rate was calculated by the following formula, and IC50, a concentration of a compound producing 50% inhibition, was estimated by semilogarithmic graph paper. [formula]

cathepsin B = target: T5, cathepsin B (Bos taurus, UniProt P07688); test: Cathepsin B-Inhibitory Activity; assay type: biochemical, bovine; settings: 1 × 10^-6 M; read-out: Inhibition rate, cathepsin B
T5 construct: purchased Sigma; host or cells: bovine spleen
Procedure: Similarly, by following the procedure mentioned above, but employing a 100 mM sodium phosphate buffer (pH 6.0; containing 1.33 mM EDTA Na2) as a buffer for measurement, a 0.02 μM solution of cathepsin B (derived from bovine spleen, Sigma) in the same buffer as an enzyme solution and a 200 μM solution of 7-(N-benzyloxycarbonyl-phenylaranyl-arginyl)-4-methylcoumarinamide (Peptide Institute, Inc.) in the same buffer as a substrate solution. Each fluorescence (f1, f2 and f3) was also determined, respectively.
as §1

leucine aminopeptidase = test: Leucine Aminopeptidase-Inhibitory Activity; assay type: biochemical, swine; settings: 1 × 10^-6 M
Procedure: as §2, with “leucine aminopeptidase” for “chymotrypsin”, “swine kidney,” for “bovine pancrease,”, “7-(leucyl-4-methylcoumarinamide” for “7-(N-succinyl-leucyl-leucyl-valyl-tyrosyl)-4-methylcoumarinamide”, “(d1, d2” for “(c1, c2”, “d3)” for “c3)”
as §1

| Structure (SMILES) | inhibition at 1 µM (trypsin) [%] | inhibition at 1 µM (chymotrypsin) [%] | inhibition at 1 µM (elastase) [%] | inhibition at 1 µM (prolyl endopeptidase) [%] | IC50 (prolyl endopeptidase) [nM] | inhibition at 1 µM (cathepsin B) [%] | Inhibition rate, leucine aminopeptidase (leucine aminopeptidase) [%] |
| --- | --- | --- | --- | --- | --- | --- | --- |
| CC(=O)ON=C[C@@H]1CCCN1C(=O)CCC(=O)NCc1ccc(Cl)cc1 [Compound 21, (2S)-1-[4-Oxo-4-(4-chlorobenzylamino)butanoyl]-2-pyrrolidinecarboxaldehyde O-acetyloxime] | 10 | 0 | 0 | 100 | 40 | 0 | 0 |
| O=C[C@@H]1CCCN1C(=O)CCC(=O)NCCCN1CCCC1=O [Compound 11, N-{4-Oxo-4-[3-(2-oxo-1-pyrrolidinyl)propylamino]butanoyl}-L-prolinal] | 0 | 0 | 0 | 97 | 25 | 0 | 0 |
